# Measurements from ChEMBL document CHEMBL3217528, “Bicyclic imidazole-4-one derivatives: a new class of antagonists for the orphan G protein-coupled receptors GPR18 and GPR55” (Medchemcomm, 2014).
# pEC50, pIC50, pKi: −log10 of the molar value. Calls of active or inactive are those of the source. The rule behind the calls is not given here.
# Experiments:
# Cannabinoid receptor 1 [1] = target: T1, Cannabinoid receptor 1 (Homo sapiens, UniProt P21554); assay: Intrinsic activity at human recombinant CB1 receptor expressed in HEK293 cell membranes assessed as stimulation of [35S]GTPgammaS binding at 10 uM by liquid scintillation counting method relative to CP55,940; format: functional
# T1 sequence (P21554 whole entry): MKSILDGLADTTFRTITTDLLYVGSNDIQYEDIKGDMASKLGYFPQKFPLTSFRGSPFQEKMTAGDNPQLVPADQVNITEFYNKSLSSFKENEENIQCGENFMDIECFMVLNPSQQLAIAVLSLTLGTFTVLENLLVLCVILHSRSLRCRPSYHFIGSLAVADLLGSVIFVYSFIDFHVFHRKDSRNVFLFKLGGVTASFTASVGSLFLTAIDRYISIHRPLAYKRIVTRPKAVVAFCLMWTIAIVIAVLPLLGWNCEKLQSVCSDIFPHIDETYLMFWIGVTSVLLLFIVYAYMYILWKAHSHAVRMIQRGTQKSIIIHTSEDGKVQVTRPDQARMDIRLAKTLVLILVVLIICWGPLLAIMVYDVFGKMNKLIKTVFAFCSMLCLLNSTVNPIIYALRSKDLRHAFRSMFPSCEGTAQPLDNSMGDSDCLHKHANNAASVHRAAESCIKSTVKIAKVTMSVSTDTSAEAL
# [2] = target: Cannabinoid receptor 1 (Rattus norvegicus) (UniProt P20272); assay: Intrinsic activity at CB1 receptor in rat brain cortical membranes assessed as stimulation of [35S]GTPgammaS binding at 10 uM by liquid scintillation counting method relative to CP55,940; format: functional, cell membranes
# Sequence of Cannabinoid receptor 1 (Rattus norvegicus) (P20272 whole entry, the tested form may be a part): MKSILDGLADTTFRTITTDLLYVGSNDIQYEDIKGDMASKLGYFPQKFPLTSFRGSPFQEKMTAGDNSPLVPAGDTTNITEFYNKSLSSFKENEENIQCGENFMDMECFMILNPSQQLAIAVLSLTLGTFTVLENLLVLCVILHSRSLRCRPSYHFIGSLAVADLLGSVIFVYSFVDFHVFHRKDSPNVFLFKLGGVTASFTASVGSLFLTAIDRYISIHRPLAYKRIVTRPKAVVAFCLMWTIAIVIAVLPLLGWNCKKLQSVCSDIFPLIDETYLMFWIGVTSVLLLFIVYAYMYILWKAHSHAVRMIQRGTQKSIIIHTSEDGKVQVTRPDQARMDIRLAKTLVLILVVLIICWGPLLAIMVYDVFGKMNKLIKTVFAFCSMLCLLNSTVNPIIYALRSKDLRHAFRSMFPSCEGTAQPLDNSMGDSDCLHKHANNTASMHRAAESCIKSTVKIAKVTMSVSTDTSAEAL
# [3] = target: T2, G-protein coupled receptor 55 (Homo sapiens, UniProt Q9Y2T6); assay: Agonist activity at human GPR55 expressed in CHO cells assessed as induction of LPI-induced beta-arrestin recruitment by beta-galactosidase enzyme fragment complementation method relative to LPI; format: cell-based; set-up: concentration or dose not given beside the values
# T2 sequence (Q9Y2T6 whole entry, the tested form may be a part): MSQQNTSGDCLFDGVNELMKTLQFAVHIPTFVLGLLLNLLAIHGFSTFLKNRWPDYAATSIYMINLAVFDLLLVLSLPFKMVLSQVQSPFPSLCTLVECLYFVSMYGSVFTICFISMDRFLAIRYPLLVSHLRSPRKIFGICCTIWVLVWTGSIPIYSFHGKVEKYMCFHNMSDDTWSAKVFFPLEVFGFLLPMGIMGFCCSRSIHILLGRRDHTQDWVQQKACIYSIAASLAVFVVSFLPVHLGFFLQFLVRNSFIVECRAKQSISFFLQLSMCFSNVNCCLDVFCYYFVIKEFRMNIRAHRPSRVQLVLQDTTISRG
# [4] = target: T3, N-arachidonyl glycine receptor (Homo sapiens) (UniProt Q14330); assay: Agonist activity at human GPR18 expressed in CHO cells assessed as induction of beta-arrestin recruitment by beta-galactosidase enzyme fragment complementation method relative to delta9-THC; format: cell-based; set-up: concentration or dose not given beside the values
# T3 sequence (whole entry): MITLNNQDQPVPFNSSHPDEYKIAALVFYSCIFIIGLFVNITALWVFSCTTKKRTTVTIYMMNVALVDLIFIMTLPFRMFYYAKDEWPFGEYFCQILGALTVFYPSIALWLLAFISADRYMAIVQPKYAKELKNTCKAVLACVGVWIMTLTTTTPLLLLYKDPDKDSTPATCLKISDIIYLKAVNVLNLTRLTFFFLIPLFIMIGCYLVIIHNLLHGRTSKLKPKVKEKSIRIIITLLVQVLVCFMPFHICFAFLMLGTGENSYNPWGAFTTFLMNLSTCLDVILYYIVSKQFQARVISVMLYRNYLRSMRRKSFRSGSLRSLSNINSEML
# Cannabinoid receptor 1 [5] = target: Cannabinoid receptor 1 (Rattus norvegicus, UniProt P20272); assay: Displacement of [3H]CP55,940 from CB1 receptor in rat brain cortical membranes; format: cell membranes
# Sequence of Cannabinoid receptor 1 (Rattus norvegicus, UniProt P20272) (P20272 whole entry): as the sequence (P20272 whole entry, the tested form may be a part) above
# Cannabinoid receptor 2 [6] = target: T4, Cannabinoid receptor 2 (Homo sapiens, UniProt P34972); assay: Agonist activity at human recombinant CB2 receptor expressed in CHO-K1 cell membranes assessed effect on forskolin-induced cAMP accumulation at 10 uM; format: functional, cell-based
# T4 sequence (P34972 whole entry): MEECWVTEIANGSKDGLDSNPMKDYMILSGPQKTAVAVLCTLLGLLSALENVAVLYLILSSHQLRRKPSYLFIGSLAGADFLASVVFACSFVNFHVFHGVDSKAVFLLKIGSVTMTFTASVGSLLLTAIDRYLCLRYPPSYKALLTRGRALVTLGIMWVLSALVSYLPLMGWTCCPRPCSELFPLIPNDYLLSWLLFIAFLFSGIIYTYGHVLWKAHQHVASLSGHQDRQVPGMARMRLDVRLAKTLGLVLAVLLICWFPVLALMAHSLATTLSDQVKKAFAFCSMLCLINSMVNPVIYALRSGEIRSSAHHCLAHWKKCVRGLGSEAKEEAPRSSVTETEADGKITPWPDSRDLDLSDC
# Cannabinoid receptor 1 [7] = target: T1, Cannabinoid receptor 1; assay: Agonist activity at human recombinant CB1 receptor expressed in CHO-K1 cell membranes assessed effect on forskolin-induced cAMP accumulation at 10 uM; format: functional, cell-based
# Cannabinoid receptor 2 [8] = target: T4, Cannabinoid receptor 2; assay: Displacement of [3H]CP55,940 from human recombinant CB2 receptor expressed in HEK293 cells; format: cell-based
# Cannabinoid receptor 1 [9] = target: T1, Cannabinoid receptor 1; assay: Displacement of [3H]CP55,940 from human recombinant CB1 receptor expressed in CHO-K1 cells; format: cell-based
# [10] = target: T2, G-protein coupled receptor 55; assay: Antagonist activity against human GPR55 expressed in CHO cells assessed as reduction in LPI-induced beta-arrestin recruitment at 10 uM by beta-galactosidase enzyme fragment complementation method; format: cell-based
# [11] = target: T2, G-protein coupled receptor 55; assay: Antagonist activity against human GPR55 expressed in CHO cells assessed as reduction in LPI-induced beta-arrestin recruitment by beta-galactosidase enzyme fragment complementation method; format: cell-based
# [12] = target: T3, N-arachidonyl glycine receptor (Homo sapiens); assay: Antagonist activity against human GPR18 expressed in CHO cells assessed as reduction in delta9-THC-induced beta-arrestin recruitment at 10 uM by beta-galactosidase enzyme fragment complementation method; format: cell-based
# [13] = target: T5, N-arachidonyl glycine receptor (Homo sapiens, UniProt Q14330); assay: Antagonist activity against human GPR18 expressed in CHO cells assessed as reduction in delta9-THC-induced beta-arrestin recruitment by beta-galactosidase enzyme fragment complementation method; format: cell-based
# T5 sequence (Q14330 whole entry): T3 sequence (whole entry)
# [14] = Displacement of [3H]diazepam from GABAA receptor in rat brain cortical membranes; format: cell membranes
# [15] = target: Cannabinoid receptor 1 (Rattus norvegicus) (UniProt P20272); assay: Displacement of [3H]CP55,940 from CB1 receptor in rat brain cortical membranes at 10 uM; format: cell membranes
# Cannabinoid receptor 2 [16] = target: T4, Cannabinoid receptor 2; assay: Displacement of [3H]CP55,940 from human recombinant CB2 receptor expressed in HEK293 cells at 10 uM; format: cell-based
# Cannabinoid receptor 1 [17] = target: T1, Cannabinoid receptor 1; assay: Displacement of [3H]CP55,940 from human recombinant CB1 receptor expressed in CHO-K1 cells at 10 uM; format: cell-based
# [18] = target: T6, G-protein coupled receptor 35 (Homo sapiens, UniProt Q9HC97); assay: Antagonist activity at human GPR35 assessed as reduction of zaprinast-induced beta-arrestin recruitment by beta-galactosidase enzyme fragment complementation method relative to untreated control; set-up: concentration or dose not given beside the values; settings: concentration not given here
# T6 sequence (Q9HC97 whole entry, the tested form may be a part): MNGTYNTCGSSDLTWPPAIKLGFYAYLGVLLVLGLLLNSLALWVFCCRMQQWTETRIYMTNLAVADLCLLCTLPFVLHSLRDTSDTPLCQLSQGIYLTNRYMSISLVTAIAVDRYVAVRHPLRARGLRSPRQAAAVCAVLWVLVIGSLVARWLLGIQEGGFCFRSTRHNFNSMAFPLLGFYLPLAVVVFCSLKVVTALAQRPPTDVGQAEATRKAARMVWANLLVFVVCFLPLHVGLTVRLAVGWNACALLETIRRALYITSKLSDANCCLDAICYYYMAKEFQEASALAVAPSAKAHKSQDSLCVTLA
# [19] = target: T6, G-protein coupled receptor 35; assay: Antagonist activity at human GPR35 assessed as reduction of zaprinast-induced beta-arrestin recruitment by beta-galactosidase enzyme fragment complementation method
# [20] = target: T6, G-protein coupled receptor 35; assay: Agonist activity at human GPR35 assessed as induction of beta-arrestin recruitment by beta-galactosidase enzyme fragment complementation method relative to zaprinast; set-up: concentration or dose not given beside the values
# [21] = target: T6, G-protein coupled receptor 35; assay: Agonist activity at human GPR35 assessed as induction of beta-arrestin recruitment by beta-galactosidase enzyme fragment complementation method
smiles,measurement,setting,value
O=C1/C(=C/c2cccc(OCc3ccc(F)cc3)c2)N=C2SCCCCN12,Intrinsic activity,Cannabinoid receptor 1 [1],-16%
same,Intrinsic activity,[2],-16%
same,Activity,[3],19%
same,Activity,[4],0%
same,pKi,Cannabinoid receptor 1 [5],6.14
same,Activity,Cannabinoid receptor 2 [6],inactive
same,Activity,Cannabinoid receptor 1 [7],inactive
same,pKi,Cannabinoid receptor 2 [8],5.81
same,pKi,Cannabinoid receptor 1 [9],6.07
same,inhibition,[10],12%
same,pIC50,[11],< 5.00
same,inhibition,[12],5%
same,pIC50,[13],< 5.00
O=C(Oc1cccc(/C=C2\N=C3SCCCN3C2=O)c1)c1ccccc1,Activity,[3],49%
same,Activity,[4],0%
same,pKi,[14],< 5.00
same,inhibition,[15],13%
same,pKi,Cannabinoid receptor 1 [5],< 5.00
same,inhibition,Cannabinoid receptor 2 [16],47%
same,pKi,Cannabinoid receptor 2 [8],≤ 5.00
same,inhibition,Cannabinoid receptor 1 [17],2%
same,pKi,Cannabinoid receptor 1 [9],< 5.00
same,inhibition,[10],7%
same,pIC50,[11],< 5.00
same,pIC50,[13],5.20
O=C1/C(=C/c2cccc(OCc3ccc(Cl)cc3)c2)N=C2SCCCN12,Intrinsic activity,Cannabinoid receptor 1 [1],-16%
same,Intrinsic activity,[2],-7%
same,Activity,[3],21%
same,Activity,[4],0%
same,pKi,[14],< 5.00
same,inhibition,[18],3%
same,pIC50,[19],< 5.00
same,Activity,[20],-1%
same,pEC50,[21],< 5.00
same,pKi,Cannabinoid receptor 1 [5],5.08
same,pKi,Cannabinoid receptor 2 [8],5.39
same,inhibition,Cannabinoid receptor 1 [17],0%
same,pKi,Cannabinoid receptor 1 [9],< 5.00
same,inhibition,[10],0%
same,pIC50,[11],< 5.00
same,pIC50,[13],6.55
O=C1/C(=C/c2cccc(Oc3ccccc3)c2)N=C2SCCCN12,Intrinsic activity,Cannabinoid receptor 1 [1],-49%
same,Intrinsic activity,[2],-15%
same,Activity,[3],13%
same,Activity,[4],5%
same,pKi,Cannabinoid receptor 1 [5],5.18
same,inhibition,Cannabinoid receptor 2 [16],9%
same,pKi,Cannabinoid receptor 2 [8],< 5.00
same,inhibition,Cannabinoid receptor 1 [17],29%
same,pKi,Cannabinoid receptor 1 [9],< 5.00
same,inhibition,[10],33%
same,pIC50,[11],< 5.00
same,inhibition,[12],54%
same,pIC50,[13],5.00
O=C1/C(=C/c2cccc(OCc3ccccc3)c2)N=C2SCCCCN12,Intrinsic activity,Cannabinoid receptor 1 [1],-35%
same,Intrinsic activity,[2],-26%
same,Activity,[3],4%
same,Activity,[4],7%
same,pKi,Cannabinoid receptor 1 [5],5.70
same,Activity,Cannabinoid receptor 2 [6],inactive
same,pKi,Cannabinoid receptor 2 [8],5.74
same,pKi,Cannabinoid receptor 1 [9],5.67
same,inhibition,[10],21%
same,pIC50,[11],< 5.00
same,inhibition,[12],49%
same,pIC50,[13],5.00
O=C1/C(=C/c2cccc(OCc3ccccc3Cl)c2)N=C2SCCCCN12,Activity,[3],7%
same,Activity,[4],0%
same,inhibition,[15],37%
same,pKi,Cannabinoid receptor 1 [5],< 5.00
same,Activity,Cannabinoid receptor 2 [6],inactive
same,pKi,Cannabinoid receptor 2 [8],6.01
same,pKi,Cannabinoid receptor 1 [9],5.64
same,inhibition,[10],43%
same,pIC50,[11],≤ 5.00
same,pIC50,[13],5.19
COc1ccc(/C=C2\N=C3SCCCN3C2=O)c(OC)c1,Activity,[3],0%
same,Activity,[4],0%
same,inhibition,[18],20%
same,pIC50,[19],< 5.00
same,Activity,[20],-7%
same,pEC50,[21],< 5.00
same,inhibition,[15],12%
same,pKi,Cannabinoid receptor 1 [5],< 5.00
same,pKi,Cannabinoid receptor 2 [8],5.59
same,inhibition,Cannabinoid receptor 1 [17],42%
same,pKi,Cannabinoid receptor 1 [9],≤ 5.00
same,pIC50,[11],5.01
same,inhibition,[12],7%
same,pIC50,[13],< 5.00
O=C1/C(=C/c2cccc(OCc3ccc(Cl)cc3Cl)c2)N=C2SCCCCN12,Intrinsic activity,Cannabinoid receptor 1 [1],-44%
same,Intrinsic activity,[2],-21%
same,Activity,[3],16%
same,Activity,[4],0%
same,pKi,[14],< 5.00
same,pKi,Cannabinoid receptor 1 [5],5.60
same,Activity,Cannabinoid receptor 2 [6],inactive
same,pKi,Cannabinoid receptor 2 [8],5.78
same,pKi,Cannabinoid receptor 1 [9],5.50
same,inhibition,[10],33%
same,pIC50,[11],< 5.00
same,pIC50,[13],5.34
O=C1/C(=C/c2cccc(OCc3ccccc3)c2)N=C2SCCCN12,Intrinsic activity,Cannabinoid receptor 1 [1],-33%
same,Intrinsic activity,[2],-9%
same,Activity,[3],37%
same,Activity,[4],0%
same,pKi,Cannabinoid receptor 1 [5],5.37
same,Activity,Cannabinoid receptor 2 [6],inactive
same,pKi,Cannabinoid receptor 2 [8],5.95
same,inhibition,Cannabinoid receptor 1 [17],25%
same,pKi,Cannabinoid receptor 1 [9],< 5.00
same,inhibition,[10],0%
same,pIC50,[11],< 5.00
same,pIC50,[13],5.14
O=C1/C(=C/c2cccc(OCc3cccc(Cl)c3)c2)N=C2SCCCCN12,Intrinsic activity,Cannabinoid receptor 1 [1],-14%
same,Intrinsic activity,[2],-12%
same,Activity,[3],52%
same,Activity,[4],0%
same,inhibition,[18],25%
same,pIC50,[19],< 5.00
same,Activity,[20],-3%
same,pEC50,[21],< 5.00
same,pKi,Cannabinoid receptor 1 [5],5.61
same,inhibition,Cannabinoid receptor 2 [16],37%
same,pKi,Cannabinoid receptor 2 [8],< 5.00
same,pKi,Cannabinoid receptor 1 [9],5.67
same,inhibition,[10],27%
same,pIC50,[11],< 5.00
same,inhibition,[12],15%
same,pIC50,[13],< 5.00
O=C1N2CCCSC2=NC1(c1ccccc1)c1ccccc1,Intrinsic activity,Cannabinoid receptor 1 [1],-31%
same,Intrinsic activity,[2],-21%
same,Activity,[3],19%
same,Activity,[4],14%
same,pKi,Cannabinoid receptor 1 [5],5.11
same,inhibition,Cannabinoid receptor 2 [16],5%
same,pKi,Cannabinoid receptor 2 [8],< 5.00
same,inhibition,Cannabinoid receptor 1 [17],25%
same,pKi,Cannabinoid receptor 1 [9],< 5.00
same,inhibition,[10],23%
same,pIC50,[11],< 5.00
same,inhibition,[12],0%
same,pIC50,[13],< 5.00
O=C1/C(=C/c2ccccc2)N=C2SCCCN12,Activity,[3],32%
same,Activity,[4],7%
same,inhibition,[18],12%
same,pIC50,[19],< 5.00
same,Activity,[20],-5%
same,pEC50,[21],< 5.00
same,inhibition,[15],1%
same,pKi,Cannabinoid receptor 1 [5],< 5.00
same,inhibition,Cannabinoid receptor 2 [16],18%
same,pKi,Cannabinoid receptor 2 [8],< 5.00
same,inhibition,Cannabinoid receptor 1 [17],40%
same,pKi,Cannabinoid receptor 1 [9],< 5.00
same,inhibition,[10],25%
same,pIC50,[11],< 5.00
same,inhibition,[12],5%
same,pIC50,[13],< 5.00
O=C1N2CCCCSC2=NC1(c1ccccc1)c1ccccc1,Intrinsic activity,Cannabinoid receptor 1 [1],-16%
same,Intrinsic activity,[2],-15%
same,Activity,[3],54%
same,Activity,[4],15%
same,pKi,Cannabinoid receptor 1 [5],5.40
same,Activity,Cannabinoid receptor 1 [7],inactive
same,inhibition,Cannabinoid receptor 2 [16],14%
same,pKi,Cannabinoid receptor 2 [8],< 5.00
same,pKi,Cannabinoid receptor 1 [9],5.87
same,inhibition,[10],6%
same,pIC50,[11],< 5.00
same,inhibition,[12],0%
same,pIC50,[13],< 5.00
